Laboratory results published in patent US20250338850A1, “COMPOSITION AND METHOD FOR CONTROLLING WEEDS IN TURFGRASS” (SYNGENTA CROP PROTECTION AG, priority 2022, published 2025).

What was measured:
[1] = tested on: St Augustinegrass variety 'Classic'; test: Turfgrass injury trial on St Augustinegrass variety 'Classic'; assay type: in vivo
Source text: In a trial conducted on St Augustinegrass variety ‘Classic’, trifloxysulfuron (TSS) (Monument 75 WDG) was applied at 28 g ai/ha with and without metcamifen applied at 30, 75 and 150 g ai/ha. Two applications were applied on a 30-day interval (initial treatment and second treatment).

[2] = tested on: kikuyugrass; test: Turfgrass injury trial on kikuyugrass; assay type: in vivo
Source text: In a kikuyugrass trial, trifloxysulfuron (TSS) (Monument 75 WDG) was applied solo at 28 g ai/ha and compared to a mixture of TSS and metcamifen (MET). The TSS-MET mixture contains trifloxysulfuron and meticamifen at a ratio of 20 to 75 g. Both Monument and the TSS-MET mixture were applied at 28 g ai/ha TSS.

With CNC(=O)Nc1ccc(S(=O)(=O)NC(=O)c2ccccc2OC)cc1 [Metcamifen, 2-Methoxy-N-[[4-[[(methylamino)carbonyl]amino]phenyl]sulfonyl]benzamide] the “injury at all rating dates” value ([1]; TSS 28 g ai/ha with metcamifen at 30, 75 and 150 g ai/ha, all rating dates) was “Less than 5%”, the trifloxysulfuron safening ([1]; metcamifen 30, 75 and 150 g ai/ha with TSS 28 g ai/ha) was “almost complete trifloxysulfuron safening” and the trifloxysulfuron safening ([2]; TSS-MET mixture at 28 g ai/ha TSS) was “almost complete trifloxysulfuron safening”.
COc1cc(OC)nc(NC(=O)NS(=O)(=O)c2ncccc2OCC(F)(F)F)n1 [TSS (Monument), N-[[(4,6-dimethoxy-2-pyrimidinyl)amino]carbonyl]-3-(2,2,2-trifluoroethoxy)-2-pyridinesulfonamide] was tested, and the “injury, 9 DAIT (Initial Treatment)” value ([1]; TSS 28 g ai/ha, 9 days after the initial application) was 71%, the “injury, 17 DAIT” value ([1]; TSS 28 g ai/ha, 17 days after the initial application) was 85% and the “injury, 24 DAIT” value ([1]; TSS 28 g ai/ha, 24 days after the initial application) was 98%. For the same compound, the “injury, 30 DAIT (Second Treatment)” value ([1]; TSS 28 g ai/ha, 30 days after the initial application) was 85%, the “injury, 41 DAIT” value ([1]; TSS 28 g ai/ha, two applications, 30-day interval, 41 days after the initial application) was 80% and the “injury, 51 DAIT” value ([1]; TSS 28 g ai/ha, two applications, 30-day interval, 51 days after the initial application) was 81%. For the same compound, the “injury, 7DAA-2” value ([2]; 28 g ai/ha TSS, 7 days after application 2) was 40a %, the “injury, 14DAA-1” value ([2]; 28 g ai/ha TSS, 14 days after application 1) was 22.5a % and the “injury, 14 DAA-2” value ([2]; 28 g ai/ha TSS, 14 days after application 2) was 40a %. For the same compound, the “injury, 21 DAA-1” value ([2]; 28 g ai/ha TSS, 21 days after application 1) was 37.4a %, the “injury, 21 DAA-2” value ([2]; 28 g ai/ha TSS, 21 days after application 2) was 40a % and the “injury, 28 DAA-1” value ([2]; 28 g ai/ha TSS, 28 days after application 1) was 34.9a %. The “injury, 28 DAA-2” value ([2]; 28 g ai/ha TSS, 28 days after application 2) was 32.5a % and the “injury” value ([2]; trifloxysulfuron solo 28 g ai/ha, two applications on a 28-day interval) was 40%.
